US20190142722A1, “METHODS AND COMPOSITIONS FOR PROMOTING OR INDUCING HAIR GROWTH” (THE TRUSTEES OF COLUMBIA UNIVERSITY IN THE CITY OF NEW YORK, priority 2017, published 2019)

Key:
telogen skin [1] = assay: Anagen induction by topical JAK inhibitor in mouse telogen skin; format: in vivo; details: topical to dorsal skin for 5 days at P60 (mid-telogen), C57BL/6 mice
Text: (§1) Mice were carefully shaved with clippers during telogen to reveal the pink skin typical of the telogen phase 1 week prior to the experiment. Mice that were inadvertently wounded were not used. Anagen was induced by topical application of 2% Ruxolitinib in DMSO to the right side of the dorsal skin daily for 5 consecutive days. The hair cycle was observed and documented with standardized photographs taken prior to the first treatment, and then twice weekly thereafter. Murine IL-6, LIF or OSM (100 ng/ml, 50 ng/ml, 125 ng/ml respectively) were dissolved in sterile PBS and 100 μl was injected into the center of the field of application daily for 10 consecutive days, beginning with the first application of Ruxolitinib.
(§2) OSM and other gp130 cytokines (IL-6 and Leukemia Inhibitory Factor, LIF) were tested for their ability to inhibit anagen resulting from topical JAK inhibitors, which resembles spontaneous anagen. C57BL/6 mice were treated on the right dorsal skin topically with Ruxolitinib 2% in DMSO at P60 (mid-telogen) for 5 days, recapitulating previous experiments in Harel, S., et al., Pharmacologic inhibition of JAK-STAT signaling promotes hair growth. Sci Adv, 2015. 1(9): p. e1500973. […] From P60, mice were also injected with control PBS or a gp130 cytokine (IL-6, LIF or OSM) into the middle of the field of topical application for 10 days. […] (FIG. 1A).

[2] = system: Hair follicle stem cells (HFSCs); assay: Western blot of cultured HFSCs stimulated with OSM, with or without JAK inhibitor pre-treatment; format: cell-based, mouse
Description: (§3) HFSCs (ITGA6+ Sca-1−) cells were collected from flow cytometry and plated onto 6-well plates, and maintained with Cnt-07S keratinocyte media. In vitro stimulation experiments were carried out when keratinocytes were 80-90% confluent. Confluent HFSCs were pre-treated with JAK inhibitors (tofacitinib, ruxolitinib or PF-06651600, all at 10 μM) for 20 min, and murine OSM was added for a final concentration of 10 ng/ml or 20 ng/ml for 15 min. For clonogenic assays, HFSCs were plated at a density of 10,000 cells per well and maintained for 2 weeks. For analysis of clonogenicity, plates were washed with PBS, and keratinocytes were fixed in situ with 4% paraformaldehyde (PFA) for 1 hour, followed by staining with 1% (wt/vol) Rhodamine B (Sigma-Aldrich) for 1 h. Clones were quantified using a backlight.
Cells were lyzed in RIPA buffer in the presence of protease and phosphatase inhibitors on ice, and protein lysates were resuspended in Laemmli sample buffer. Whole-cell lysates were fractionated on TGX Stain-free protein gels and transferred to a PVDF membrane, blocked with 5% non-fat milk in TBST, and incubated with antibodies listed in the Key Resources Table (all 1:1000, diluted in TBST/3% BSA) overnight. Membranes were washed the following day and incubated with HRP-conjugated secondary antibodies (1:5000), washed, and developed with Luminata Forte Western HRP Substrate and visualized on the BioRAD ChemiDOC MP Imaging system. GAPDH or (3-actin were used as loading controls, depending on the mass of the proteins of interest.
Hair follicle stem cells (HFSCs) (ITGA6+ Sca-1− population isolated from telogen skin), were cultured and stimulated with OSM at 10 ng/ml and 20 ng/ml. […] (FIG. 1C).

macrophages = assay: Macrophage inhibition during telogen to initiate anagen; format: in vivo, mouse; details: mid-telogen, C57BL/6 mice
Description: (§4) Neutralizing antibodies to OSMR (7.5 μg) were injected intradermally into the dorsal telogen skin daily for 14 days from P60 (mid-telogen). Neutralizing antibodies to CSFL1R (AFS98) and F4/80 (CI:A3-1) were diluted in sterile PBS, and 500 μg was injected intradermally into the dorsal telogen skin for 14 consecutive days. Neutralizing antibodies to CD25 (PC61.5) were injected intraperitoneally every other day (250 μg/dose×3) from P53, prior to anagen induction at P60.
(§5) For in vivo macrophage inhibition, the small molecule Pexidartinib/PLX3397 was administered topically (2 mM in DMSO) or subcutaneously (1 mM in corn oil) for 5 consecutive days from P60. For OSM knock-down, peritoneal macrophages were harvested from adult C57BL/6 mice and cultured in DMEM/F12/15% FBS/0.3 mMCa2+ the presence of […] M-CSF to polarize them to an “M2-like” phenotype, similar to trichophages. Lentiviral precipitate containing scrambled or OSM shRNA added to the media in the presence of 8 μg/ml protamine sulphate, and the cells were centrifuged at 3000 rpm for 1 h at 32° C. to enhance transduction. Successful transductions were enriched with puromycin (1 μg/ml) selection, counted and used for the patch assay.
Three independent methods of macrophage inhibition during telogen were used to initiate anagen in C57BL/6 mice.

[3] = system: T regulatory cells / macrophages; assay: Anagen initiation after T regulatory cell depletion or macrophage targeting; format: in vivo, mouse
Description: as §4

[4] = system: Neonatal keratinocytes and dermal cells; assay: Hair reconstitution (patch) assay; format: in vivo; details: tofacitinib 400 nM or OSM 25 ng/ml added to cell slurry injected intradermally into nude mouse
Description: as §5
Neonatal (P0 or P1) mice were sacrificed and skins were harvested for the patch assay. Neonatal skins were enzymatically separated with 0.25% trypsin, and the dermis was further digested with 0.3% collagenase/DNase. Neonatal keratinocytes and dermal cells were counted recombined in a 1:1 ratio ([…] each) and resuspended in 100 μl of media (1:1 mix of DMEM/10% FBS and CnT-0.7S) and injected intradermally into the dorsal skin of a nude mouse. For pharmacological/cytokine treatment, tofacitinib (400 nM) and/or OSM (25 ng/ml) was added. […]

alopecia areata = details: patients, literature (Mackay-Wiggan 2016; Kennedy Crispin 2016); cited from earlier work
(ITGA6+ Sca-1−) HFSCs = assay: Colony-forming assay with isolated HFSCs; format: cell-based, mouse; details: for colony formation of HFSCs: OSM 10 ng/ml or Tofacitinib 100 nM alone
Description: as §3
Colony-forming assays with isolated (ITGA6+ Sca-1−) HFSCs were performed in the presence of OSM (10 ng/ml), Tofacitinib (100 nM) or both. […] (FIG. 1E).

telogen skin [5] = assay: Inhibition of topical JAK inhibitor-induced anagen by intradermal gp130 cytokines; format: in vivo, mouse; details: cytokine injected intradermally into middle of field of topical application for 10 days from P60, C57BL/6 mice
Text: as §1, §2

hair follicles = details: cited from earlier work
[6] = pre-treatment 10 μM for 20 min before OSM
[7] = OSM at 10 ng/ml and 20 ng/ml, cultured HFSCs

In the case of `C=CC(=O)N1C[C@H](Nc2ncnc3[nH]ccc23)CC[C@@H]1C` [PF-06651600], the “anagen induction in telogen skin” value (telogen skin [1]) is reported as “sufficient to initiate anagen”, the “effect on JAK phosphorylation in OSM-stimulated HFSCs (Western blot)” value [2, 6] is reported as “did not have an effect on JAK1/JAK2/Tyk2 or STAT3 phosphorylation” and the “effect on pSTAT3 / pSTAT5 activation in OSM-stimulated HFSCs (Western blot)” value (from here on “effect on pSTAT3 / pSTAT5 activation”) [2, 6] is reported as “without significant inhibition of STAT3 phosphorylation”. The “effect on pSTAT3 / pSTAT5 activation” value ([2]; pre-treatment 10 μM for 20 min before OSM, listed as PF-06651660) was “still inhibited pSTAT5 activation”.

With `FC(F)(F)c1ccc(CNc2ccc(Cc3c[nH]c4ncc(Cl)cc34)cn2)cn1` [Pexidartinib, 5-[(5-chloro-1H-pyrrolo[2,3-b]pyridin-3-yl)methyl]-N-[[6-(trifluoromethyl)pyridin-3-yl]methyl]pyridin-2-amine] the anagen initiation (macrophages; subcutaneous (1 mM in corn oil) for 5 days) was “successful at initiating anagen”, the anagen initiation (macrophages; topical (2 mM in DMSO) for 5 days) was “successful at initiating anagen” and the “anagen initiation compared with wild-type mice treated with a JAK-inhibitor” value [3] was “initiated anagen in the same manner as wild-type mice treated with a JAK-inhibitor”.

In the case of `C[C@@H]1CCN(C(=O)CC#N)C[C@@H]1N(C)c1ncnc2[nH]ccc12` [Tofacitinib], the “hair reconstitution in patch assay” value [4] is listed as “enhanced the hair follicles generated in this assay”, the “efficacy in alopecia areata” value (alopecia areata) is listed as “efficacious in the treatment of alopecia areata” and the “effect on JAK phosphorylation in OSM-stimulated HFSCs (Western blot)” value [2, 6] is listed as “inhibited phosphorylation of a variety of JAKs”. For the same molecule, the “effect on pSTAT3 / pSTAT5 activation” value [2, 6] was “inhibited both pSTAT3 and pSTAT5 activation”, the “inhibition of OSM-activated pathways by pre-treatment (Western blot)” value ([2]; pre-treatment 10 μM for 20 min before OSM, cultured HFSCs) was “inhibited the JAK-STAT and, to a lesser extent, the MAPK-MEK-ERK pathways” and the “colony formation of HFSCs” value ((ITGA6+ Sca-1−) HFSCs) was “increased the colony-forming ability of HFSCs, as well as increasing the colony size”. For the same molecule, the “rescue of the inhibitory effects of OSM on colony formation” value ((ITGA6+ Sca-1−) HFSCs; Tofacitinib 100 nM together with OSM 10 ng/ml) was “sufficient to rescue the inhibitory effects of OSM”.

B1: OSM: secreted cytokine of the LIF/OSM family; murine OSM used in tests (protein, UniProt P53347 25-206, looked up)
Oncostatin-M: NRGCSNSSSQLLSQLQNQANLTGNTESLLEPYIRLQNLNTPDLRAACTQHSVAFPSEDTLRQLSKPHFLSTVYTTLDRVLYQLDALRQKFLKTPAFPKLDSARHNILGIRNNVFCMARLLNHSLEIPEPTQTDSGASRSTTTPDVFNTKIGSCGFLWGYHRFMGSVGRVFREWDDGSTRSRR
For B1, the “inhibition of anagen resulting from topical Ruxolitinib” value (telogen skin [5]) is listed as “inhibited anagen in the area it was administered”, the “hair reconstitution in patch assay” value [4] is listed as “sufficient to nearly completely inhibit hair reconstitution” and the effect on anagen (hair follicles; mouse, literature) is listed as “potent inhibitor of anagen”. The “activation of JAK-STAT and MAPK-MEK-ERK pathways (Western blot)” value [2, 7] was “activated JAK-STAT1/3/5 pathways and the MAPK-MEK-ERK pathways in HFSCs in a dose-dependent fashion”, the “effect on PI3K/Akt/mTOR pathway (Western blot)” value [2, 7] was “minimal effect on the PI3K/Akt/mTOR pathway” and the “activation of JAKs, pSTAT3 and pSTAT5 (Western blot)” value ([2]; OSM-stimulated cultured HFSCs) was “dose-dependent activation of all four JAKs (JAK1, JAK2, JAK3, Tyk2), as well as pSTAT3 and pSTAT5”. The “colony formation of HFSCs” value ((ITGA6+ Sca-1−) HFSCs) was “prevented colonies from forming in vitro”.

B2: IL-6: gp130 cytokine, murine IL-6 (protein, UniProt P08505 25-211, looked up)
Interleukin-6: FPTSQVRRGDFTEDTTPNRPVYTTSQVGGLITHVLWEIVEMRKELCNGNSDCMNNDDALAENNLKLPEIQRNDGCYQTGYNQEICLLKISSGLLEYHSYLEYMKNNLKDNKKDKARVLQRDTETLIHIFNQEVKDLHKIVLPTPISNALLTDKLESQKEWLRTKTIQFILKSLEEFLKVTLRSTRQT
For B2, the “inhibition of anagen resulting from topical Ruxolitinib” value (telogen skin [5]) is listed as “OSM was the only member of this class of cytokines that inhibited anagen” and the induction of catagen (hair follicles; anagen HFs, literature (Kwack 2012)) is listed as “IL-6 induced catagen in anagen HFs”.
